Where two headings read alike, the source gives them in different places. Blank lines part the entries; values can stand above or below the compound they belong to.
Key:
FYN = biological target: T1, FYN (Homo sapiens, UniProt P06241); test: Z'-LYTE in vitro kinase assay, FYN kinase inhibition; format: biochemical; conditions: near-Km ATP, 60 minutes at 25° C.
T1 construct: purchased CarnaBioscience
Description: Assays to determine the kinase inhibitory activity of compounds were performed using an automatic liquid handling device (Microlab STAR Hamilton) and Z′-LYTE™ Kinase Assay Platform (Invitrogen), a Fluorescence Resonance Energy Transfer (FRET)-based assay platform compatible with high-throughput screening (HTS) applications. The assay employs a fluorescence-based, coupled-enzyme format and utilizes the differential sensitivity of phosphorylated and non-phosphorylated peptides to proteolytic cleavage.
Test compounds were evaluated towards active FYN (CarnaBioscience). The enzyme was incubated in a 384 low-volume microplate with a synthetic peptide-substrate, ATP and different inhibitor concentrations, ranging from 10^−10 M up to 10^−5 M final concentration. Samples representing the 0% inhibition (or total enzymatic activity) were in the presence of compound diluent (1% DMSO final) in Reaction Buffer (50 mM Hepes, 10 mM MgCl2, 1 mM EGTA, 0.01% Brij-35, pH 7.5).
A near-Km ATP concentrations for the kinase and an optimal enzyme concentration that phosphorylates 20-40% of the Z′-LYTE™ Tyr 2 Peptide in a one-hour incubation, were selected. All reagents were diluted in reaction buffer and the kinase reaction was carried out in a total volume of 10 μl, for 60 minutes at 25° C. The 0% Phosphorylation (i.e. no ATP) and 100% Phosphorylation (i.e. synthetically phosphorylated peptide supplied) Assay Controls, included in each plate, allowed to calculate the percent phosphorylation achieved in the specific reaction well. The 0% Inhibition and 0% Phosphorylation (i.e. 100% Inhibition) Controls define the dynamic range in the screen. At the end of incubation, a secondary reaction (the Development Reaction) started by adding 5 μl of Development Reagent, containing a site-specific protease that recognizes and cleaves non-phosphorylated peptides, and was interrupted after 60 minutes with 5 μl/sample of Stop Reagent. Measurement of the Coumarin (Ex. 400 nm, Em. 460 nm) and Fluorescein (Ex. 400 nm, Em. 535 nm) emission signals were performed by a fluorescence plate reader (Envision, PerkinElmer).
Results are expressed as percentage of inhibition and the IC50 values were calculated by non-linear curve fitting using GraphPad™ Prism software.

VEGFR2 (KDR) kinase = biological target: T2, VEGFR2 (KDR) kinase (Homo sapiens, UniProt P35968); test: ADP-Glo in vitro kinase assay, VEGFR2 kinase inhibition; format: biochemical; conditions: for IC50: ATP 50 μM, 30 minutes at room temperature; for VEGFR2 kinase inhibition, result in words: Table 19
T2 construct: purchased SignalChem
T2 sequence (P35968 20-1356): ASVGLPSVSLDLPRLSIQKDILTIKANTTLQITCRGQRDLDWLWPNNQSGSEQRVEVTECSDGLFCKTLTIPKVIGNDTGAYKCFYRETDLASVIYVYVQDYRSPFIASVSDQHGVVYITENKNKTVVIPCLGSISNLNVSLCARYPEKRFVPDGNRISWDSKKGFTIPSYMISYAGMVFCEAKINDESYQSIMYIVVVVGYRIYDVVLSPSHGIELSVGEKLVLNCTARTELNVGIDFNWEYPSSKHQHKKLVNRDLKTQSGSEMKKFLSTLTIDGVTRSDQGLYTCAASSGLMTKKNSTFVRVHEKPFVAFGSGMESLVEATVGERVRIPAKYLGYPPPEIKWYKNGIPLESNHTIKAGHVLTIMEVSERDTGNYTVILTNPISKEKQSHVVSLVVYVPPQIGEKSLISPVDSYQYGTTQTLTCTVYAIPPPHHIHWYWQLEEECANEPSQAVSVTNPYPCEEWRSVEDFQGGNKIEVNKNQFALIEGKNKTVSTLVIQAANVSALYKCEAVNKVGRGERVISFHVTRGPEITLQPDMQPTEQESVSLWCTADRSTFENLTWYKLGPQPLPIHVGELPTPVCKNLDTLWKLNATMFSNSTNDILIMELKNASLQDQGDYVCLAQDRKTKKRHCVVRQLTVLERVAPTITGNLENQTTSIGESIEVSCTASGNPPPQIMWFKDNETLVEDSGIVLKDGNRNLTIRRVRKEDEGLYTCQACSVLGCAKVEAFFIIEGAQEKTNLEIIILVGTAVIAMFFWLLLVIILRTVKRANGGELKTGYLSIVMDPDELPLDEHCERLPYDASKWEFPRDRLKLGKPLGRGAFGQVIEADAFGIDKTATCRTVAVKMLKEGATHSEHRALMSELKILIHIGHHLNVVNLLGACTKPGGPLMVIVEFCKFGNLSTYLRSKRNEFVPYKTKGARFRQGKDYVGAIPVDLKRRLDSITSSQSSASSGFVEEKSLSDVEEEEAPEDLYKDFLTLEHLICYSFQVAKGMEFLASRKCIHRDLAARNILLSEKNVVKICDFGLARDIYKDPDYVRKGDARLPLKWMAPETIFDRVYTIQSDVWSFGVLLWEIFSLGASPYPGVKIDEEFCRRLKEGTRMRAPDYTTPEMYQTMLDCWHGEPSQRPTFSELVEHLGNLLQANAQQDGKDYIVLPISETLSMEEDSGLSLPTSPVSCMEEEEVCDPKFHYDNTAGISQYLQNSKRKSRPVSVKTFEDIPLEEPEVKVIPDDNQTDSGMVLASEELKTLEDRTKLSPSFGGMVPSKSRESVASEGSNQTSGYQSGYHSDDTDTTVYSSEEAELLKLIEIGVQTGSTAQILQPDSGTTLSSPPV
Description: (§1) The ADP-Glo™ Kinase Assay (Promega), monitoring ADP produced in the kinase reaction, was performed in two steps. In the first one, after the kinase reaction, the ADP-Glo™ Reagent is added to terminate the kinase reaction and deplete the remaining ATP. In the second step, the Kinase Detection Reagent is added to simultaneously convert ADP to ATP (ATPn or newly synthesized ATP) and introduce luciferase and luciferin, allowing the ATPn to be measured (luciferase/luciferin reaction). The amount of light generated correlates with the amount of ATPn (indirectly with the ADP produced in kinase reaction).
(§2) Kinase reaction was performed in 10 μl in a white 384-well plate, inhibitor solutions in DMSO/Kinase buffer (40 mM Tris-Cl, 20 mM MgCl2, 0.1 mg/ml BSA, 50 μM DTT, pH 7.5) and VEGFR2 (KDR) kinase in Kinase buffer (SignalChem, 0.5 ng/μl final concentration in assay) were pre-incubate 15 minutes at room temperature. At the kinase concentration selected, a signal-to negative control ratio >10 was calculated, according to supplier indication. In samples representing the Total enzymatic activity or the negative control (no enzyme), inhibitor solution was replaced by diluents (1 DMSO in kinase buffer, final concentration) or ultra-pure water, respectively.
(§3) The range of inhibitor concentrations was from 10^−11 M up to 3×10^−6 M (final concentration in assay) and each experimental point was performed in duplicate.
(§4) To start the reaction, a substrate/ATP mix (50 μM final concentration, near to ATP Km value) was added to each sample and after 30 minutes incubation at room temperature, ADP-Glo™ Reagent and Kinase Detection Reagent, incubated in sequence according to the respective incubation time and supplier indication, allowed to stop and develop the kinase reaction. The luminescence was measured with a plate-reading luminometer (Envision 2104 Multilabel reader, PerkinElmer). The percentage of inhibition was calculated towards the Total enzymatic activity and the corresponding curves were analyzed by non linear curve fitting (GraphPad software, version 7 for Windows), allowing to calculate the IC50 value±standard error of the value

EGFR = EGFR (Homo sapiens, UniProt P00533); test: ADP-Glo in vitro kinase assay, EGFR kinase inhibition; format: biochemical; design: purchased SignalChem; conditions: for IC50: ATP 10 μM, 30 minutes at room temperature; for EGFR kinase inhibition, result in words: text summary of Table 18
EGFR, sequence (P00533 25-1210): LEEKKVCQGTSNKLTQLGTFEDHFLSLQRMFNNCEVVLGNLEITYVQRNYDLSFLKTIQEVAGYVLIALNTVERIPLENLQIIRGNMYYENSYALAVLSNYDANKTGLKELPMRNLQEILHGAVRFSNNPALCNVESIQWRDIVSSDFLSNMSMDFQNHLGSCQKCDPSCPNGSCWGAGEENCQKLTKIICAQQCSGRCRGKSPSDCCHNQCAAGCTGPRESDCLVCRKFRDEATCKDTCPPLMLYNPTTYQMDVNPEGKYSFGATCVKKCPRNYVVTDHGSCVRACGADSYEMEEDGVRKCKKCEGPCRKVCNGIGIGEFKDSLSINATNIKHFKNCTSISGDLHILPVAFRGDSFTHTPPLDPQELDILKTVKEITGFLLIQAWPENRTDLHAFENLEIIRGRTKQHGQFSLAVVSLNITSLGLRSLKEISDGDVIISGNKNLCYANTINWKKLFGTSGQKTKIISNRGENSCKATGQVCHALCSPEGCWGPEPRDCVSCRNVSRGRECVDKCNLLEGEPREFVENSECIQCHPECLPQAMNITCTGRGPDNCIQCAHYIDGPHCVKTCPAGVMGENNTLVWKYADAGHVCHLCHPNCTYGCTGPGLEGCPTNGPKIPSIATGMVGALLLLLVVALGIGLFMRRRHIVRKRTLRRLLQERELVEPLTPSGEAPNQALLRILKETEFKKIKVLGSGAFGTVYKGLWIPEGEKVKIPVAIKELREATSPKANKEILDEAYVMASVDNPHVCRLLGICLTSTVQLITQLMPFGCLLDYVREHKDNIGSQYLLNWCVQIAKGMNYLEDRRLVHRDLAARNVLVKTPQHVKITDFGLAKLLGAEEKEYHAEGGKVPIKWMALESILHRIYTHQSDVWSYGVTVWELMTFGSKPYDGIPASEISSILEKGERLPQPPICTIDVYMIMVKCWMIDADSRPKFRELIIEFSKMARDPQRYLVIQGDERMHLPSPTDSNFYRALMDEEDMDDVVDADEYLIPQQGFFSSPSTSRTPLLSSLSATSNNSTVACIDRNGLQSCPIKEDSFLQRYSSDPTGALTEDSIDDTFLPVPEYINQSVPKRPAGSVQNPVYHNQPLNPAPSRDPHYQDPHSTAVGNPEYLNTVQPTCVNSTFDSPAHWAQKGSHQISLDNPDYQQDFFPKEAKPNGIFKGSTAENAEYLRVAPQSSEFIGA
Description: as §1
as §2, with “EGFR” for “VEGFR2 (KDR)”, “2.5” for “0.5”, “selected” for “selected,”, “activity (no inhibitor)” for “activity”
as §3
as §4, with “mix (ATP 10” for “mix (50”, “the estimate.” for “the value”

[1] = Pharmacokinetics in CD1 mice, iv and po; format: in vivo; conditions: 3 mg/kg; for half-life: read-out: t½* (converted)

T1 sequence (P06241 whole entry): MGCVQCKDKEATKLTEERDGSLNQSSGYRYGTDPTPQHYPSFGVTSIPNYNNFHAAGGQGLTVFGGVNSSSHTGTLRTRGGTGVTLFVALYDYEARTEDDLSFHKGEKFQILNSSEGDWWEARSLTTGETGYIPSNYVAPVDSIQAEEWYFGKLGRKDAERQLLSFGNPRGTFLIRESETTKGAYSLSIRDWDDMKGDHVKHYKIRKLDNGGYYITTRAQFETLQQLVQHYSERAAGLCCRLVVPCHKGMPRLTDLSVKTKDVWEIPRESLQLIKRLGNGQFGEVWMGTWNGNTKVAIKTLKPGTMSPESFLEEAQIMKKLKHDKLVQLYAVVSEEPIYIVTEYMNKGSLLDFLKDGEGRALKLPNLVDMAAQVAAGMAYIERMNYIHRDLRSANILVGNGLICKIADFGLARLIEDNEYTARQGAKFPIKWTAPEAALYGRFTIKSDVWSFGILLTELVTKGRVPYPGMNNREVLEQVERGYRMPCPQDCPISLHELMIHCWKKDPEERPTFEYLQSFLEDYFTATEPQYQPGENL

IC50 (FYN): 388 nM
IC50 (VEGFR2 (KDR) kinase): 437 nM
IC50 (EGFR): ≥ 1000 nM
Compound: CN1CCC(Oc2ccc(C(=O)Nc3n[nH]c4cc(Oc5ccccc5F)ccc34)cc2)CC1 [Compound 37, N-(6-(2-fluorophenoxy)-1H-indazol-3-yl)-4((1-methylpiperidin-4-yl)oxy)benzamide]

IC50 (FYN): 513 nM
IC50 (VEGFR2 (KDR) kinase): 12 nM
VEGFR2 kinase inhibition, result in words (VEGFR2 (KDR) kinase): more potent
IC50 (EGFR): 24 nM
EGFR kinase inhibition, result in words (EGFR): more active
Compound: CN1CCC(Oc2ccc(C(=O)Nc3n[nH]c4nc(Nc5ccccc5F)ccc34)cc2)CC1 [Compound 47, N-(6-((2-fluorophenyl)amino)-1H-pyrazolo[3,4-b]pyridin-3-yl)-4((1-methylpiperidin-4-yl)oxy)benzamide]

IC50 (FYN): 181 nM
IC50 (VEGFR2 (KDR) kinase): 533 nM
IC50 (EGFR): ≥ 1000 nM
Compound: CN1CCC(c2ccc(C(=O)Nc3n[nH]c4cc(Nc5ccccc5F)ccc34)nc2)CC1 [Compound 39, N-(6((2-fluorophenyl)amino)-1H-indazol-3-yl)-5-(1-methylpiperidin-4-yl)picolinamide]

The next lines start with the compound.

Compound: CN1CCC(c2ccc(C(=O)Nc3n[nH]c4cc(Nc5ccccc5Cl)ccc34)cc2)CC1 [Compound 14, N-(6-((2-chlorophenyl)amino)-1H-indazol-3-yl)-4-(1-methylpiperidin-4-yl)benzamide]
IC50 (FYN): 82 nM
IC50 (VEGFR2 (KDR) kinase): 58 nM
IC50 (EGFR): ≥ 1000 nM

Compound: CN1CCC(c2ccc(C(=O)Nc3n[nH]c4nc(Nc5ccccc5)ccc34)cc2)CC1 [Compound 29, 4-(1-methylpiperidin-4-yl)-N-(6-(phenylamino)-1H-pyrazolo[3,4-b]pyridin-3-yl)benzamide]
IC50 (FYN): 95 nM
IC50 (VEGFR2 (KDR) kinase): 1 nM
VEGFR2 kinase inhibition, result in words (VEGFR2 (KDR) kinase): more potent
IC50 (EGFR): ≥ 1000 nM

Compound: CN1CCC(c2ccc(C(=O)Nc3n[nH]c4cc(Nc5c(F)cccc5Cl)ccc34)cc2)CC1 [Compound 1, N-(6-((2-chloro-6-fluorophenyl)amino)-1H-indazol-3-yl)-4-(1-methylpiperidin-4-yl)benzamide]
IC50 (FYN): 104 nM
IC50 (VEGFR2 (KDR) kinase): 105 nM
IC50 (EGFR): 102 nM
EGFR kinase inhibition, result in words (EGFR): more active

Compound: CN1CCC(c2ccc(C(=O)Nc3n[nH]c4nc(Nc5ccc(C#N)cc5)ccc34)cc2)CC1 [Compound 32, N-(6-((4-cyanophenyl)amino)-1H-pyrazolo[3,4-b]pyridin-3-yl)-4-(1-methylpiperidin-4-yl)benzamide]
IC50 (FYN): 356 nM
IC50 (VEGFR2 (KDR) kinase): 3 nM
VEGFR2 kinase inhibition, result in words (VEGFR2 (KDR) kinase): more potent
IC50 (EGFR): ≥ 1000 nM

Compound: Cc1ccc(Nc2ccc3c(NC(=O)c4ccc(C5CCN(C)CC5)cc4)n[nH]c3c2)c(F)c1 [Compound 8, N-(6-((2-fluoro-4-methylphenyl)amino)-1H-indazol-3-yl)-4-(1-methylpiperidin-4-yl)benzamide]
IC50 (FYN): 99 nM
IC50 (VEGFR2 (KDR) kinase): 126 nM
IC50 (EGFR): ≥ 1000 nM

Compound: CN1CCC(c2ccc(C(=O)Nc3n[nH]c4cc(Nc5ccccc5F)ccc34)cc2)CC1 [Compound 17, N-(6-((2-fluorophenyl)amino)-1H-indazol-3-yl)-4-(1-methylpiperidin-4-yl)benzamide]
IC50 (FYN): 87 nM
Tlast ([1]; iv): 24 h
AUC(0-inf) ([1]; mouse, plasma, iv): 1400 ng·h/mL
AUC(0-t) ([1]; mouse, plasma, iv): 1350 ng·h/mL
clearance ([1]; mouse, plasma, iv, read-out: CLp): 47.7 mL/min/kg
Vd ([1]; mouse, plasma, iv, read-out: Vz): 22.8 L/kg
half-life ([1]; mouse, plasma, iv): 5.5 h
AUC(0-inf) ([1]; mouse, plasma, po): 726 ng·h/mL
AUC(0-t) ([1]; mouse, plasma, po): 712 ng·h/mL
Cmax ([1]; mouse, plasma, po): 178 nM
Tmax ([1]; mouse, plasma, po): 1 h
bioavailability ([1]; mouse, plasma, po): 53%
half-life ([1]; mouse, plasma, po): 4.5 h
Tlast ([1]; po): 24 h
IC50 (VEGFR2 (KDR) kinase): 222 nM
IC50 (EGFR): 225 nM

— patent US20220041559A1, “BENZO-AND PYRIDO-PYRAZOLES AS PROTEIN KINASE INHIBITORS” (ROTTAPHARM BIOTECH S.R.L., priority 2019, published 2022)
